In the supplement of paper PMC11208160:

Experiment: recombinant UMI read abundance after kanamycin selection (control-corrected) (log10(CPM+1)); higher = more efficient recombination; extreme values may be limits of the assay; sequences stand for … in AGTGCAGAGAAAATCGGCCAGTTTTCTCTGCCTGCAGTCCGCATGCCGTGGGACCCCTTGGGTTCTAACCTGTTGCCTAGATTTATGCAGCGGACTGCCTTTCTCCCAAAGTGATAAACCGG…AGGTTGGTTTCACT; site = the 11-nt donor
Summary of the method: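 Values, expressed as log10(CPM+1), derive from recombinant UMI counts converted to CPM, averaged across replicates and scaled by control-derived factors. Plating was with IPTG (0.07 mM) plus kanamycin or unselected, two replicates each. The screen pooled donor and donor-binding-loop pairs for the IS621 bridge recombinase in Escherichia coli.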
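Also: IS621 bridge recombinase in Escherichia coli cells against a fixed T5 target plasmid.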

Row | Sequence | recombinant UMI read abundance (log10)
1 | CGGGAGTCATGGACCGGTTTTCCCGGTAATCCGTATTTGCC (site CGGGAGTCTAG) | 2.02
2 | CGGGAGTCATGGACCGGTTTTCCCGGTAATCCGTATTTGCC (site CGGGAGTCTCG) | 1.51
3 | CGGGAGTCATGGACCGGTTTTCCCGGTAATCCGTATTTGCC (site CGGGAGTCTGA) | 2.66
4 | CGGGAGTCATGGACCGGTTTTCCCGGTAATCCGTATTTGCC (site CGGGAGTCTGC) | 2.08
5 | CGGGAGTCATGGACCGGTTTTCCCGGTAATCCGTATTTGCC (site CGGGAGTCTGG) | 1.67
6 | CGGGAGTCATGGACCGGTTTTCCCGGTAATCCGTATTTGCC (site CGGGAGTCTGT) | 1.75
7 | CGGGAGTCATGGACCGGTTTTCCCGGTAATCCGTATTTGCC (site CGGGAGTCTTG) | 2.01
8 | CGGGAGTCATGGACCGGTTTTCCCGGTAATCCGTATTTGCC (site CGGGATTCTGG) | 0
9 | CGGGAGTCATGGACCGGTTTTCCCGGTAATCCGTATTTGCC (site CGGGCGTCTGG) | 0
10 | CGGGAGTCATGGACCGGTTTTCCCGGTAATCCGTATTTGCC (site CGGGGGTCTGG) | 1.3
11 | CGGGAGTCATGGACCGGTTTTCCCGGTAATCCGTATTTGCC (site CGGGTGTCTGG) | 0
12 | CGGGAGTCATGGACCGGTTTTCCCGGTAATCCGTATTTGCC (site CGGTAGTCTGG) | 0.878
13 | CGGGAGTCATGGACCGGTTTTCCCGGTAATCCGTATTTGCC (site CGTGAGTCTGG) | 0.895
14 | CGGGAGTCATGGACCGGTTTTCCCGGTAATCCGTATTTGCC (site CTGGAGTCTGG) | 2.06
15 | CGGGAGTCATGGACCGGTTTTCCCGGTAATCCGTATTTGCC (site GGGGAGTCTGG) | 0
16 | CGGGAGTCATGGACCGGTTTTCCCGGTAATCCGTATTTGCC (site TGGGAGTCTGG) | 0
17 | CGGGATCCATGGACCGGTTTTCCCGGTAATCCGTATTTGAT (site CGGGAACCTAT) | 0.0108
18 | CGGGATCCATGGACCGGTTTTCCCGGTAATCCGTATTTGAT (site CGGGACCCTAT) | 0.492
19 | CGGGATCCATGGACCGGTTTTCCCGGTAATCCGTATTTGAT (site CGGGAGCCTAT) | 0.0289
20 | CGGGATCCATGGACCGGTTTTCCCGGTAATCCGTATTTGAT (site CGGGATCCTAT) | 0.898
21 | CGGGATCCATGGACCGGTTTTCCCGGTAATCCGTATTTGTT (site CGGAATCCTAA) | 0.736
22 | CGGGATCCATGGACCGGTTTTCCCGGTAATCCGTATTTGTT (site CGGCATCCTAA) | 0.02
23 | CGGGATCCATGGACCGGTTTTCCCGGTAATCCGTATTTGTT (site CGGGATCCTAA) | 0.85
24 | CGGGATCCATGGACCGGTTTTCCCGGTAATCCGTATTTGTT (site CGGTATCCTAA) | 0.243
25 | CGGGCACCATGGACCGGTTTTCCCGGTAATCCGTATTTGAT (site CGGGAACCTAT) | 0

Row | Sequence | recombinant UMI read abundance (log10)
26 | CGGGCACCATGGACCGGTTTTCCCGGTAATCCGTATTTGAT (site CGGGCACCTAT) | 0
27 | CGGGCACCATGGACCGGTTTTCCCGGTAATCCGTATTTGAT (site CGGGGACCTAT) | 0.0117
28 | CGGGCACCATGGACCGGTTTTCCCGGTAATCCGTATTTGAT (site CGGGTACCTAT) | 0
29 | CGGGCATCATGGACCGGTTTTCCCGGTAATCCGTATTTGCT (site CGATCATCTAG) | 0
30 | CGGGCATCATGGACCGGTTTTCCCGGTAATCCGTATTTGCT (site CGGACATCTAG) | 0.763
31 | CGGGCATCATGGACCGGTTTTCCCGGTAATCCGTATTTGCT (site CGGCCATCTAG) | 0
32 | CGGGCATCATGGACCGGTTTTCCCGGTAATCCGTATTTGCT (site CGGGCATCTAG) | 1.86
33 | CGGGCATCATGGACCGGTTTTCCCGGTAATCCGTATTTGCT (site CGGTCATCTAG) | 0
34 | CGGGCATCATGGACCGGTTTTCCCGGTAATCCGTATTTGTA (site CGGGCATCTTA) | 2.38
35 | CGGGCTGCATGGACCGGTTTTCCCGGTAATCCGTATTTGAG (site CGGGCTGCTCT) | 1.37
36 | CGGGGATCATGGACCGGTTTTCCCGGTAATCCGTATTTGTT (site CGGGGATCTAA) | 2.63
37 | CGGGTCCCATGGACCGGTTTTCCCGGTAATCCGTATTTGCC (site CGGGTCCCTGG) | 1.39
38 | CGGTACCCATGGACCGGTTTTCCCGGTAATCCGTATTTGGT (site CGGTACCCTAC) | 0.0101
39 | CGGTAGACATGGACCGGTTTTCCCGGTAATCCGTATTTGAG (site CGATAGACTCT) | 2.01
40 | CGGTAGACATGGACCGGTTTTCCCGGTAATCCGTATTTGAG (site CGCTAGACTCT) | 0.37
41 | CGGTAGACATGGACCGGTTTTCCCGGTAATCCGTATTTGAG (site CGGTAGACTCT) | 1.9
42 | CGGTAGACATGGACCGGTTTTCCCGGTAATCCGTATTTGAG (site CGTTAGACTCT) | 0.371
43 | CGGTAGTCATGGACCGGTTTTCCCGGTAATCCGTATTTGTT (site CGGTAGTCTAA) | 3.15
44 | CGGTATCCATGGACCGGTTTTCCCGGTAATCCGTATTTGCG (site CGGTATCCTCG) | 0.378
45 | CGGTATCCATGGACCGGTTTTCCCGGTAATCCGTATTTGTC (site CGGAATCCTAA) | 0.00431
46 | CGGTATCCATGGACCGGTTTTCCCGGTAATCCGTATTTGTC (site CGGTATCCTGA) | 0
47 | CGGTCAGCATGGACCGGTTTTCCCGGTAATCCGTATTTGCT (site CGATCATCTAG) | 0
48 | CGGTCAGCATGGACCGGTTTTCCCGGTAATCCGTATTTGCT (site CGGTCAGCTAG) | 1.12
49 | CGGTCGACATGGACCGGTTTTCCCGGTAATCCGTATTTGGG (site CAGTCGACTCC) | 0.0262
50 | CGGTCGACATGGACCGGTTTTCCCGGTAATCCGTATTTGGG (site CCGTCGACTCC) | 0.0265

Row | Sequence | recombinant UMI read abundance (log10)
51 | CGGTCGACATGGACCGGTTTTCCCGGTAATCCGTATTTGGG (site CGGTCGACTCC) | 0.018
52 | CGGTCGACATGGACCGGTTTTCCCGGTAATCCGTATTTGGG (site CTGTCGACTCC) | 0.0407
53 | CGGTCGACATGGACCGGTTTTCCCGGTAATCCGTATTTGTT (site CGATCGACTAA) | 0.0167
54 | CGGTCGACATGGACCGGTTTTCCCGGTAATCCGTATTTGTT (site CGCTCGACTAA) | 0.00476
55 | CGGTCGACATGGACCGGTTTTCCCGGTAATCCGTATTTGTT (site CGGTCGACTAA) | 0.226
56 | CGGTCGACATGGACCGGTTTTCCCGGTAATCCGTATTTGTT (site CGTTCGACTAA) | 0.00264
57 | CGGTGGACATGGACCGGTTTTCCCGGTAATCCGTATTTGTC (site CGGTGGACTGA) | 2.27
58 | CGGTTCCCATGGACCGGTTTTCCCGGTAATCCGTATTTGTG (site AGGTTCCCTCA) | 0.0113
59 | CGGTTCCCATGGACCGGTTTTCCCGGTAATCCGTATTTGTG (site CGGTTCCCTCA) | 0.0387
60 | CGGTTCCCATGGACCGGTTTTCCCGGTAATCCGTATTTGTG (site GGGTTCCCTCA) | 0.0355
61 | CGGTTCCCATGGACCGGTTTTCCCGGTAATCCGTATTTGTG (site TGGTTCCCTCA) | 0.0119
62 | CGGTTGGCATGGACCGGTTTTCCCGGTAATCCGTATTTGCT (site CGATTGGCTAG) | 0.3
63 | CGGTTGGCATGGACCGGTTTTCCCGGTAATCCGTATTTGCT (site CGCTTGGCTAG) | 0.00834
64 | CGGTTGGCATGGACCGGTTTTCCCGGTAATCCGTATTTGCT (site CGGTTGGCTAG) | 1.08
65 | CGGTTGGCATGGACCGGTTTTCCCGGTAATCCGTATTTGCT (site CGTTTGGCTAG) | 0
66 | CGTAAGCCATGGACCGGTTTTCCCGGTAATCCGTATTTGTT (site CGGAATCCTAA) | 0
67 | CGTAAGCCATGGACCGGTTTTCCCGGTAATCCGTATTTGTT (site CGTAAGCCTAA) | 0.666
68 | CGTAATCCATGGACCGGTTTTCCCGGTAATCCGTATTTGTT (site CGAAATCCTAA) | 0.00285
69 | CGTAATCCATGGACCGGTTTTCCCGGTAATCCGTATTTGTT (site CGCAATCCTAA) | 0
70 | CGTAATCCATGGACCGGTTTTCCCGGTAATCCGTATTTGTT (site CGGAATCCTAA) | 0.00347
71 | CGTAATCCATGGACCGGTTTTCCCGGTAATCCGTATTTGTT (site CGTAATCCTAA) | 0
72 | CGTACATCATGGACCGGTTTTCCCGGTAATCCGTATTTGCT (site CGAACATCTAG) | 0.623
73 | CGTACATCATGGACCGGTTTTCCCGGTAATCCGTATTTGCT (site CGATCATCTAG) | 0
74 | CGTACATCATGGACCGGTTTTCCCGGTAATCCGTATTTGCT (site CGCACATCTAG) | 0
75 | CGTACATCATGGACCGGTTTTCCCGGTAATCCGTATTTGCT (site CGGACATCTAG) | 0
